Several values for one entry are separate records, joined by “and”; a condition that tells them apart may be missing. Equal entries are not always repeated. Where two headings read alike, the source gives them in different places.
Tests used:
PRDM9 = target: T1, PRDM9 (Homo sapiens, UniProt Q9NQV7); assay: MOA determination: IC50 at varying SAM or peptide concentrations (SPA); assay type: biochemical
T1 construct: PRDM9 (amino acids: 195–415)
T1 sequence (Q9NQV7 195-415): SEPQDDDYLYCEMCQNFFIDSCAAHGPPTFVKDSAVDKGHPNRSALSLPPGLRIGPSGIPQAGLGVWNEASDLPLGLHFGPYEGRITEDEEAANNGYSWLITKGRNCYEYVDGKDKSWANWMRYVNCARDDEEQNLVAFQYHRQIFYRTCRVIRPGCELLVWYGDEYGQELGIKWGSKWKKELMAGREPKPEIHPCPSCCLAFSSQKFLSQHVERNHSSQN
From the text: Reactions (in quadruplicates) were initiated by adding SAM and followed by measuring the methyltransferase activity using SPA assay. The determined IC50 values were fitted against the corresponding substrate concentrations. An increase in IC50 values when concentration of peptide was increased indicated a peptide-competitive pattern of inhibition.

Adrenergic α2B = target: T2, Adrenergic α2B (Homo sapiens, UniProt P18089); assay: Eurofins Panlabs panel, radioligand binding; conditions: at 10 µM
T2 construct: NIMH Psychoactive Drug Screening Program, University of North Carolina at Chapel Hill
T2 sequence (P18089 whole entry): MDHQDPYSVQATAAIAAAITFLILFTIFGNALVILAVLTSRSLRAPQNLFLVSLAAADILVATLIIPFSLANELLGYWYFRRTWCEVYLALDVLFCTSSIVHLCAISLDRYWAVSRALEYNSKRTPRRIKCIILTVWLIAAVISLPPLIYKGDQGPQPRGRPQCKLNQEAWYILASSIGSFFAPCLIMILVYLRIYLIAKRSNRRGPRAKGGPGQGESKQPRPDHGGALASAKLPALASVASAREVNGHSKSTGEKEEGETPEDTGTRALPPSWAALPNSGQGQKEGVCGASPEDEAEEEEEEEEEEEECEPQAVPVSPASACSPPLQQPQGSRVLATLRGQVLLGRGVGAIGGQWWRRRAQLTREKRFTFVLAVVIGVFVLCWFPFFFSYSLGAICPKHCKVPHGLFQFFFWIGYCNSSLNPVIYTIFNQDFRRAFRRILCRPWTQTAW

Histamine H3 = target: T3, Histamine H3 (Homo sapiens, UniProt Q9Y5N1); assay: Eurofins Panlabs panel, radioligand binding; conditions: at 10 µM
T3 construct: NIMH Psychoactive Drug Screening Program, University of North Carolina at Chapel Hill
T3 sequence (Q9Y5N1 whole entry): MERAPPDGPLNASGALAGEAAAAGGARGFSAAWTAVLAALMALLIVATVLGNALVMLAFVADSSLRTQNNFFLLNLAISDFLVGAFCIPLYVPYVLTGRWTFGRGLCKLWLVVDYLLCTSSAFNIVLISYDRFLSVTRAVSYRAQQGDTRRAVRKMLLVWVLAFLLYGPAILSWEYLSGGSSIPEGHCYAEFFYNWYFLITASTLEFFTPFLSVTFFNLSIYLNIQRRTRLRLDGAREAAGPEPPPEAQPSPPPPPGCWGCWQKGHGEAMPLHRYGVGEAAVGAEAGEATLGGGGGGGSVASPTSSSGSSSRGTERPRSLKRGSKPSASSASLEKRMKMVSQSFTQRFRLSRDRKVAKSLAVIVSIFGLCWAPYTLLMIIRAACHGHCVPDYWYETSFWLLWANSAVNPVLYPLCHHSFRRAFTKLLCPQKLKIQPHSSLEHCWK

Muscarinic M2 [1] = target: T4, Muscarinic M2 (Homo sapiens, UniProt P08172); assay: Eurofins Panlabs panel, radioligand binding; conditions: at 10 µM
T4 construct: NIMH Psychoactive Drug Screening Program, University of North Carolina at Chapel Hill
T4 sequence (P08172 1-466): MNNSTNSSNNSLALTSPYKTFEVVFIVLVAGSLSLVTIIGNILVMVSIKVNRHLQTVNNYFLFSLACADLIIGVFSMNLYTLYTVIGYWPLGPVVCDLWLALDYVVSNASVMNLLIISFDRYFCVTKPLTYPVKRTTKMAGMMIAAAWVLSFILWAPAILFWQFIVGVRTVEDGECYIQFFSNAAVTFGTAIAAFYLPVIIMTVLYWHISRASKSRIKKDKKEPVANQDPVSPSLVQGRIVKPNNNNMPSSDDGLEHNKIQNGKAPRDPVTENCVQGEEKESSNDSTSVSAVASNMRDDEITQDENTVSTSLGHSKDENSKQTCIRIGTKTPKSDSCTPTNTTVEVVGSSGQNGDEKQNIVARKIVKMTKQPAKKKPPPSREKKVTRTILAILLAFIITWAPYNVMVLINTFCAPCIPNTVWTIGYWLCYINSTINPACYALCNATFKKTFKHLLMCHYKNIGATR

Muscarinic M2 [2] = target: T4, Muscarinic M2; assay: GPCR functional activity, GloSensor assay (agonist and antagonist mode); assay type: cell-based; conditions: for M2 Tango Agonist, raw signal / M2 Tango Antagonist, raw signal: replicates 1-4

COc1cc(OC)cc(-c2noc(N3CCN(C)C4(CCN(c5ccnc(C)c5)CC4)C3)n2)c1 [MRK-740]
Pattern of PRDM9 inhibition with respect to SAM (PRDM9; 20 µM peptide, SAM 22 to 350 µM): uncompetitive pattern | Ki (PRDM9; 20 µM peptide, varying SAM, read-out: Ki, estimated from asymptote of Fig 2d): ~160 nM | Pattern of PRDM9 inhibition with respect to peptide (H3 1–25) substrate (PRDM9; 350 µM SAM, peptide 1.25 to 20 µM): competitive pattern of PRDM9 inhibition | Ki (PRDM9; 350 µM SAM, varying H3 1–25 peptide, read-out: Ki, calculated from Y intercept of Fig. 2e): 65 ± 6 nM | IC50 (PRDM9; [H3 1-25]/Km 1.25, Figure 2e, average of replicates, read-out: Average IC50): 0.0749 µM | IC50 (PRDM9; [H3 1-25]/Km 1.25, Figure 2e, read-out: IC50 (µM), replicates): 0.0747 µM and 0.0785 µM and 0.0703 µM and 0.0762 µM | IC50 (PRDM9; [H3 1-25]/Km 2.5, Figure 2e, average of replicates, read-out: Average IC50): 0.0926 µM | IC50 (PRDM9; [H3 1-25]/Km 2.5, Figure 2e, read-out: IC50 (µM), replicates): 0.0843 µM and 0.0895 µM and 0.0878 µM and 0.109 µM | IC50 (PRDM9; [H3 1-25]/Km 5, Figure 2e, average of replicates, read-out: Average IC50): 0.125 µM | IC50 (PRDM9; [H3 1-25]/Km 5, Figure 2e, read-out: IC50 (µM), replicates): 0.129 µM and 0.102 µM and 0.118 µM and 0.151 µM | IC50 (PRDM9; [H3 1-25]/Km 10, Figure 2e, average of replicates, read-out: Average IC50): 0.169 µM | IC50 (PRDM9; [H3 1-25]/Km 10, Figure 2e, read-out: IC50 (µM), replicates): 0.138 µM and 0.151 µM and 0.173 µM and 0.215 µM | IC50 (PRDM9; [H3 1-25]/Km 20, Figure 2e, average of replicates, read-out: Average IC50): 0.254 µM | IC50 (PRDM9; [H3 1-25]/Km 20, Figure 2e, read-out: IC50 (µM), replicates): 0.228 µM and 0.278 µM and 0.257 µM | IC50 (PRDM9; [SAM]/Km 0.18, Figure 2d, average of replicates, read-out: Average IC50): 0.893 µM | IC50 (PRDM9; [SAM]/Km 0.18, Figure 2d, read-out: IC50 (µM), replicates): 0.838 µM and 0.633 µM and 1.03 µM and 1.07 µM | IC50 (PRDM9; [SAM]/Km 0.36, Figure 2d, average of replicates, read-out: Average IC50): 0.704 µM | IC50 (PRDM9; [SAM]/Km 0.36, Figure 2d, read-out: IC50 (µM), replicates): 0.519 µM and 0.651 µM and 0.615 µM and 1.03 µM | IC50 (PRDM9; [SAM]/Km 0.73, Figure 2d, average of replicates, read-out: Average IC50): 0.374 µM | IC50 (PRDM9; [SAM]/Km 0.73, Figure 2d, read-out: IC50 (µM), replicates): 0.349 µM and 0.395 µM and 0.369 µM and 0.382 µM | IC50 (PRDM9; [SAM]/Km 1.46, Figure 2d, average of replicates, read-out: Average IC50): 0.275 µM | IC50 (PRDM9; [SAM]/Km 1.46, Figure 2d, read-out: IC50 (µM), replicates): 0.27 µM and 0.288 µM and 0.249 µM and 0.292 µM | IC50 (PRDM9; [SAM]/Km 2.92, Figure 2d, average of replicates, read-out: Average IC50): 0.21 µM | IC50 (PRDM9; [SAM]/Km 2.92, Figure 2d, read-out: IC50 (µM), replicates): 0.18 µM and 0.228 µM and 0.197 µM and 0.236 µM | Effect of SAH on PRDM9 inhibition by MRK-740, compared with SAM (PRDM9; increasing SAH in parallel to SAM): did not have the same effect | Binding (Adrenergic α2B): > 50% | Binding (Histamine H3): > 50% | Binding (Muscarinic M2 [1]): > 50% | Functional activity (in words) (Muscarinic M2 [2]; agonist and antagonist mode): no functional activity | M2 Tango Agonist, raw signal (Muscarinic M2 [2]; log[MRK-740] -4.52): 1230.87 and 608.6 and 2018.05 and 925.229 | M2 Tango Antagonist, raw signal (Muscarinic M2 [2]; log[MRK-740] -4.52): 1892.98 and 2737.32 and 2580.15 and 2057.03 | M2 Tango Agonist, raw signal (Muscarinic M2 [2]; log[MRK-740] -5): 1170.4 and 556.928 and 885.65 and 2239.04 | M2 Tango Antagonist, raw signal (Muscarinic M2 [2]; log[MRK-740] -5): 2819.92 and 2620.3 and 3056.24 and 3398.11 | M2 Tango Agonist, raw signal (Muscarinic M2 [2]; log[MRK-740] -5.52): 908.738 and 686.657 and 1321.02 and 1693.72 | M2 Tango Antagonist, raw signal (Muscarinic M2 [2]; log[MRK-740] -5.52): 11268.6 and 11778 and 17270.9 and 14621.3 | M2 Tango Agonist, raw signal (Muscarinic M2 [2]; log[MRK-740] -6): 612.997 and 2403.96 and 980.199 and 1368.29 | M2 Tango Antagonist, raw signal (Muscarinic M2 [2]; log[MRK-740] -6): 16800.4 and 13053.9 and 12658.1 and 16097 | M2 Tango Agonist, raw signal (Muscarinic M2 [2]; log[MRK-740] -6.52): 1008.78 and 553.629 and 1327.61 and 250.195 | M2 Tango Antagonist, raw signal (Muscarinic M2 [2]; log[MRK-740] -6.52): 19522.3 and 17447.6 and 21435.3 and 11694.3 | M2 Tango Agonist, raw signal (Muscarinic M2 [2]; log[MRK-740] -7): 841.674 and 505.256 and 883.451 and 1474.94 | M2 Tango Antagonist, raw signal (Muscarinic M2 [2]; log[MRK-740] -7): 19642.8 and 20162.6 and 13226 and 9835.52 | M2 Tango Agonist, raw signal (Muscarinic M2 [2]; log[MRK-740] -7.52): 1908.11 and 681.16 and 1388.08 and 3242.84 | M2 Tango Antagonist, raw signal (Muscarinic M2 [2]; log[MRK-740] -7.52): 21785.3 and 16504.3 and 11050.6 and 14699.4 | M2 Tango Agonist, raw signal (Muscarinic M2 [2]; log[MRK-740] -8): 903.241 and 865.861 and 1293.53 and 833.978 | M2 Tango Antagonist, raw signal (Muscarinic M2 [2]; log[MRK-740] -8): 17075.8 and 13974.2 and 18134.9 and 13350 | M2 Tango Agonist, raw signal (Muscarinic M2 [2]; log[MRK-740] -8.52): 3423.68 and 634.694 and 1797.23 and 346.523 | M2 Tango Antagonist, raw signal (Muscarinic M2 [2]; log[MRK-740] -8.52): 19019.9 and 15122.7 and 15169.2 and 14917.8 | M2 Tango Agonist, raw signal (Muscarinic M2 [2]; log[MRK-740] -9): 2386.23 and 137.073 and 3399.79 and 858.202 | M2 Tango Antagonist, raw signal (Muscarinic M2 [2]; log[MRK-740] -9): 17183.9 and 21120.4 and 14888.7 and 14358.1 | M2 Tango Agonist, raw signal (Muscarinic M2 [2]; log[MRK-740] -9.52): 623.448 and 315.598 and 869.448 and 1092.96 | M2 Tango Antagonist, raw signal (Muscarinic M2 [2]; log[MRK-740] -9.52): 22350.3 and 15858.2 and 16819.1 and 15951.3 | M2 Tango Agonist, raw signal (Muscarinic M2 [2]; log[MRK-740] -10): 2109.3 and 935.517 and 704.979 and 1937.8 | M2 Tango Antagonist, raw signal (Muscarinic M2 [2]; log[MRK-740] -10): 21021.6 and 16763.8 and 20216.2 and 13987.5 | M2 Tango Agonist, raw signal (Muscarinic M2 [2]; log[MRK-740] -10.52): 1187.14 and 1805.66 and 1171.68 and 1424.71 | M2 Tango Antagonist, raw signal (Muscarinic M2 [2]; log[MRK-740] -10.52): 18293 and 14853.8 and 17839.5 and 22558.2 | M2 Tango Agonist, raw signal (Muscarinic M2 [2]; log[MRK-740] -11): 648.751 and 5178.11 and 914.431 and 991.746 | M2 Tango Antagonist, raw signal (Muscarinic M2 [2]; log[MRK-740] -11): 17836.6 and 15099.5 and 17153.4 and 15587.9 | M2 Tango Agonist, raw signal (Muscarinic M2 [2]; log[MRK-740] -11.52): 2954.16 and 1388.16 and 1004.4 and 790.728 | M2 Tango Antagonist, raw signal (Muscarinic M2 [2]; log[MRK-740] -11.52): 13959.9 and 19316.4 and 14923.6 and 25119.7 | M2 Tango Agonist, raw signal (Muscarinic M2 [2]; log[MRK-740] -12): 606.579 and 917.242 and 726.065 and 3353.4 | M2 Tango Antagonist, raw signal (Muscarinic M2 [2]; log[MRK-740] -12): 15989 and 24141.3 and 15762.3 and 20389.2

— article PMC6917776, “Discovery of a chemical probe for PRDM9” (Nature Communications, 2019)
